Measured values from the supplement of paper PMC10307832.

Columns and labels:
Experiment in all cases: relative viability (nuclei count vs DMSO), 5 days (fraction); higher = more cells survive
[1] = compound: CCc1cnn2c(NCc3ccc[n+]([O-])c3)cc(N3CCCC[C@H]3CCO)nc12 [Dinaciclib] + CS(=O)(=O)N1CCN(Cc2cc3nc(-c4cccc5[nH]ncc45)nc(N4CCOCC4)c3s2)CC1 [Pictilisib] (partner 1 µM)
Method in brief: (§1)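 After 5 days of treatment, lung cancer cells in 1536-well plates were fixed and stained in a single step (final 0.05% Triton X-100, 1% formaldehyde, 1 ug/ml Hoechst) and their nuclei counted on 4× images. Treatment had been applied by pin tool the day after seeding as one drug alone or as a fixed anchor-drug dose with five library-drug doses (not always all listed) in √10 steps. Relative viability is the nuclei count of treated wells divided by that of vehicle wells, and values are medians of duplicate plates.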

[2] = compound: CCc1cnn2c(NCc3ccc[n+]([O-])c3)cc(N3CCCC[C@H]3CCO)nc12 [Dinaciclib] + CS(=O)(=O)CCNCc1ccc(-c2ccc3ncnc(Nc4ccc(OCc5cccc(F)c5)c(Cl)c4)c3c2)o1 [Lapatinib] (partner 2 µM)
Method in brief: as §1

[3] = compound: CCc1cnn2c(NCc3ccc[n+]([O-])c3)cc(N3CCCC[C@H]3CCO)nc12 [Dinaciclib] + COc1cc2c(Oc3ccc(NC(=O)C4(C(=O)Nc5ccc(F)cc5)CC4)cc3F)ccnc2cc1OCCCN1CCOCC1 [Foretinib] (partner 0.25 µM)
Method in brief: as §1

[4] = compound: CCc1cnn2c(NCc3ccc[n+]([O-])c3)cc(N3CCCC[C@H]3CCO)nc12 [Dinaciclib] + C[C@]1(O)C[C@@H](c2nc(-c3ccc4ccc(-c5ccccc5)nc4c3)c3c(N)nccn32)C1 [Linsitinib] (partner 1 µM)
Method in brief: as §1

[5] = compound: CCc1cnn2c(NCc3ccc[n+]([O-])c3)cc(N3CCCC[C@H]3CCO)nc12 [Dinaciclib] + N=C(N)NC(=N)NCCc1ccccc1 [Phenformin] (partner 250 µM)
Method in brief: as §1

[6] = compound: CCc1cnn2c(NCc3ccc[n+]([O-])c3)cc(N3CCCC[C@H]3CCO)nc12 [Dinaciclib] + O=C(c1cc(Cc2n[nH]c(=O)c3ccccc23)ccc1F)N1CCN(C(=O)C2CC2)CC1 [Olaparib] (partner 8 µM)
Method in brief: as §1

[7] = compound: CCc1cnn2c(NCc3ccc[n+]([O-])c3)cc(N3CCCC[C@H]3CCO)nc12 [Dinaciclib] + CC1(C)CCC(c2ccc(Cl)cc2)=C(CN2CCN(c3ccc(C(=O)NS(=O)(=O)c4ccc(N[C@H](CCN5CCOCC5)CSc5ccccc5)c(S(=O)(=O)C(F)(F)F)c4)cc3)CC2)C1 [Navitoclax] (partner 0.5 µM)
Method in brief: as §1

[8] = compound: CCc1cnn2c(NCc3ccc[n+]([O-])c3)cc(N3CCCC[C@H]3CCO)nc12 [Dinaciclib] + Nc1ncn([C@H]2C[C@H](O)[C@@H](CO)O2)c(=O)n1 [Decitabine] (partner 2 µM)
Method in brief: as §1

[9] = compound: CCc1cnn2c(NCc3ccc[n+]([O-])c3)cc(N3CCCC[C@H]3CCO)nc12 [Dinaciclib] + Cc1nc(NC(=O)N2CCC[C@H]2C(N)=O)sc1-c1ccnc(C(C)(C)C(F)(F)F)c1 [Alpelisib] (partner 2 µM)
Method in brief: as §1

[10] = compound: CCc1cnn2c(NCc3ccc[n+]([O-])c3)cc(N3CCCC[C@H]3CCO)nc12 [Dinaciclib] + C[C@@H](Oc1cc(-c2cnn(C3CCNCC3)c2)cnc1N)c1c(Cl)ccc(F)c1Cl [Crizotinib] (partner 1 µM)
Method in brief: as §1

[11] = compound: CCc1cnn2c(NCc3ccc[n+]([O-])c3)cc(N3CCCC[C@H]3CCO)nc12 [Dinaciclib]
Method in brief: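 After an overnight hold at 37 °C, lung cancer cell lines in 1536-well plates were pinned with five library-drug doses (not always all listed), each √10 from the next, on vehicle-anchored plates. The cells stayed 5 days without fresh medium, then a one-step fix, permeabilisation and Hoechst stain preceded 4× imaging and MetaXpress nuclear counts. A plate passed only with control CV under 25% and at least one doubling. Viability is the median, over plates, of treated-well nuclei relative to vehicle-well nuclei.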

[12] = compound: CCc1cnn2c(NCc3ccc[n+]([O-])c3)cc(N3CCCC[C@H]3CCO)nc12 [Dinaciclib] + CC(C)C[C@H](NC(=O)[C@H](Cc1ccccc1)NC(=O)c1cnccn1)B(O)O [Bortezomib] (partner 0.002 µM)
Method in brief: as §1

Cell Line: A549
- relative viability ([1]; first compound 0.009487 µM): 0.375
- relative viability ([1]; first compound 0.03 µM): 0.0566
- relative viability ([1]; first compound 0.09487 µM): 0.0629
- relative viability ([1]; first compound 0.3 µM): 0.0604
- relative viability ([2]; first compound 0.009487 µM): 0.85
- relative viability ([2]; first compound 0.03 µM): 0.0505
- relative viability ([2]; first compound 0.09487 µM): 0.0627
- relative viability ([2]; first compound 0.3 µM): 0.0615
- relative viability ([3]; first compound 0.009487 µM): 0.952
- relative viability ([3]; first compound 0.03 µM): 0.0544
- relative viability ([3]; first compound 0.09487 µM): 0.0214
- relative viability ([3]; first compound 0.3 µM): 0.0246
- relative viability ([4]; first compound 0.009487 µM): 0.561
- relative viability ([4]; first compound 0.03 µM): 0.165
- relative viability ([4]; first compound 0.09487 µM): 0.0454
- relative viability ([4]; first compound 0.3 µM): 0.0453
- relative viability ([5]; first compound 0.009487 µM): 0.174
- relative viability ([5]; first compound 0.03 µM): 0.0204
- relative viability ([5]; first compound 0.09487 µM): 0.035
- relative viability ([5]; first compound 0.3 µM): 0.0274
- relative viability ([6]; first compound 0.009487 µM): 0.276
- relative viability ([6]; first compound 0.03 µM): 0.0567
- relative viability ([6]; first compound 0.09487 µM): 0.0423
- relative viability ([6]; first compound 0.3 µM): 0.0382
- relative viability ([7]; first compound 0.009487 µM): 1.05
- relative viability ([7]; first compound 0.03 µM): 0.0352
- relative viability ([7]; first compound 0.09487 µM): 0.038
- relative viability ([7]; first compound 0.3 µM): 0.0398
- relative viability ([8]; first compound 0.009487 µM): 0.293
- relative viability ([8]; first compound 0.03 µM): 0.205
- relative viability ([8]; first compound 0.09487 µM): 0.0304
- relative viability ([8]; first compound 0.3 µM): 0.0308
- relative viability ([9]; first compound 0.009487 µM): 0.686
- relative viability ([9]; first compound 0.03 µM): 0.0411
- relative viability ([9]; first compound 0.09487 µM): 0.0487
- relative viability ([9]; first compound 0.3 µM): 0.0518
- relative viability ([10]; first compound 0.009487 µM): 0.724
- relative viability ([10]; first compound 0.03 µM): 0.365
- relative viability ([10]; first compound 0.09487 µM): 0.0408
- relative viability ([10]; first compound 0.3 µM): 0.05
- relative viability ([11]; 0.009487 µM): 0.968
- relative viability ([11]; 0.03 µM): 0.32
- relative viability ([11]; 0.09487 µM): 0.0405
- relative viability ([11]; 0.3 µM): 0.046

Cell Line: EBC-1
- relative viability ([1]; first compound 0.009487 µM): 0.283
- relative viability ([1]; first compound 0.03 µM): 0.117
- relative viability ([1]; first compound 0.09487 µM): 0.109
- relative viability ([1]; first compound 0.3 µM): 0.142
- relative viability ([2]; first compound 0.009487 µM): 0.21
- relative viability ([2]; first compound 0.03 µM): 0.16
- relative viability ([2]; first compound 0.09487 µM): 0.168
- relative viability ([2]; first compound 0.3 µM): 0.157
- relative viability ([3]; first compound 0.009487 µM): 0.0927
- relative viability ([3]; first compound 0.03 µM): 0.0992
- relative viability ([3]; first compound 0.09487 µM): 0.106
- relative viability ([3]; first compound 0.3 µM): 0.106
- relative viability ([12]; first compound 0.009487 µM): 0.452
- relative viability ([12]; first compound 0.03 µM): 0.133
- relative viability ([12]; first compound 0.09487 µM): 0.152
- relative viability ([12]; first compound 0.3 µM): 0.146
- relative viability ([4]; first compound 0.009487 µM): 0.977
- relative viability ([4]; first compound 0.03 µM): 0.228
- relative viability ([4]; first compound 0.09487 µM): 0.101
- relative viability ([4]; first compound 0.3 µM): 0.127
- relative viability ([6]; first compound 0.009487 µM): 0.737
- relative viability ([6]; first compound 0.03 µM): 0.132
- relative viability ([6]; first compound 0.09487 µM): 0.126
- relative viability ([6]; first compound 0.3 µM): 0.106
- relative viability ([7]; first compound 0.009487 µM): 0.307
- relative viability ([7]; first compound 0.03 µM): 0.138
- relative viability ([7]; first compound 0.09487 µM): 0.136
- relative viability ([7]; first compound 0.3 µM): 0.163
- relative viability ([9]; first compound 0.009487 µM): 0.501
- relative viability ([9]; first compound 0.03 µM): 0.138
- relative viability ([9]; first compound 0.09487 µM): 0.123
- relative viability ([9]; first compound 0.3 µM): 0.141
- relative viability ([10]; first compound 0.009487 µM): 0.198
- relative viability ([10]; first compound 0.03 µM): 0.159
- relative viability ([10]; first compound 0.09487 µM): 0.151
- relative viability ([10]; first compound 0.3 µM): 0.136
- relative viability ([11]; 0.009487 µM): 0.875
- relative viability ([11]; 0.03 µM): 0.149
- relative viability ([11]; 0.09487 µM): 0.108
- relative viability ([11]; 0.3 µM): 0.141
